Data set [1] is described as follows: Fluorescence quantum yield against Rhodamine 6G. The data set is classed as physicochemical. Conditions: in ethanol, Rhodamine 6G as reference. The protocol:
The quantum yield of compounds (1) through (11) was measured in ethanol using Rhodamine 6G as a reference.
The fluorescence quantum yields of the compounds were determined using the formula (ϕ=ϕs(Fx/Fs) (As/Ax), where ϕ is quantum yield, F is the integrated area under the corrected emission spectrum, and A is the absorbance at the excitation wavelength; the subscripts x and s refer to F16s and the standard, respectively. Rhodamine 6G (OF 95%) in ethanol was used as the standard. All compounds and Rhodamine 6G were dissolved in ethanol in 5 different concentrations with the absorbance lower than 0.1 at 425 nm. The corresponding 5 different fluorescences of the compounds and Rhodamine 6G were excited at 425 nm and the emission spectra from 450 nm to 650 nm were obtained for the following integrated area measurement. All data was analyzed using Origin Pro 9.0 software (OriginLab, Northampton, Massachusetts, USA) to get the compounds' final quantum yield.

Data set [2] in a line: Photostability under continuous excitation. The data set is classed as physicochemical. Particulars: 10 μM in water, continuously excited for 50 mins. The protocol: A 75 W Xenon arc lamp (Hamamatsu, San Jose, California, USA) with 420-470 nm bond pass filter (MF445-45, Thorlabs, Newton, New Jersey, USA) was used as the light source for the F16 derivatives, Rhodamine 6G, and Mitotracker® Green. Analogously, a 540-580 nm bond pass filter (MF559-34, Thorlabs, Newton, New Jersey, USA) was used to excite Mitotracker Red. All the dyes were dissolved in water at a 10 μM concentration in 700 μL micro quartz cuvettes (10 mm, Sigma-Aldrich, St. Louis, MO, USA). They were continuously excited for 50 mins. During this period, the fluorescence intensity was measured every 5 mins at 525 nm (F16s, Rhodamine 6G, Mitotracker Green) or 600 nm (Mitotracker Red). Relative fluorescence intensity change was monitored over time.

Data set [3] has as its system bladder cancer T24 cells, non-small cell lung cancer (NSCLC) H838 cells, normal HIN-3T3 cells. Nature of the data set: In vitro cytotoxicity, anti-tumor activity and selectivity against normal cells. The data set is classed as cell-based. Conditions: Homo sapiens, NCI-H838, 72 h, 3 days. The protocol:
(§1) The cytotoxicity of compounds (1) through (11) was tested in vitro with bladder cancer T24 cells, non-small cell lung cancer (NSCLC) H838 cells, and normal HIN-3T3 cells (FIG. 4). All test cell lines were incubated in 96-well plates overnight at a density of 3000 cells/well. The culture medium was replaced with 200 μL of culture medium, into which the testing compound was dispersed at various concentrations (1.95-500 μM). After incubating for 3 days, the viable cell numbers were checked and directly counted under microscopy (10×). A minimum of 1 mm×1 mm area was counted from each of at least three widely separated regions of cell culture. The cell proliferation rate was calculated by the following formula: cell proliferation rate (%)=(average cell number of sample wells/average cell number of control wells)×100%. The intact culture medium was evaluated as a control.

Data set [4] is described as follows: UV absorbance of the compounds. The data set is classed as physicochemical. Conditions: 31 μM in water. As to the method: The absorbance and fluorescence of delocalized lipophilic cation compounds (1) through (11) were measured. UV absorbance of the compounds was recorded on an Agilent 8453 UV spectrophotometer at a concentration of 31 μM in water. Fluorescence was recorded on a Fluoromax-3 spectrafluorometer (Jobin Yvon) at a concentration of 7.8 μM in water.

Data set [5] concerns mitochondria. Nature of the data set: Mitochondrial targeting, fluorescence microscopy of stained cells. The data set is classed as cell-based. Conditions: NIH-353, H838, and T24 cell lines. As to the method:
The mitochondrial targeting properties of compounds (1) through (11) were tested. 3 μM compounds were added to cells grown in a MatTek glass-bottom culture dishes (Ashland, Massachusetts) for 1 h and washed with PBS (phosphate-buffered saline) three times. After replacement of the medium, cells were imaged using a fluorescent microscope (Zeiss) with a 63× oil or 20× objective lens (excited in the GFP channel).
Mitotracker@ Red (Molecular Probes) and Hoechst (Thermo Scientific) were added to the medium to stain the mitochondria and nuclei, following the manufacturer's procedures. Cells were photographed using a 63× oil or 20× objective lens.

Data set [6] deals with H838 cells. Nature of the data set: Dependence of mitochondrial accumulation on mitochondrial membrane potential. The data set is classed as cell-based. The protocol: To examine whether the mitochondrial membrane potential (ΔΨm) causes the accumulation of delocalized lipophilic cation compounds in mitochondria, H838 cells were preincubated with medium containing high concentrations of K^+ ions (i.e. 137 mM), to depolarize the mitochondrial membrane, or low concentrations of K^+ ions (i.e. 3 mM). Next, 3 μM of compound (3) was added and the cells were incubated for 30 minutes.

Data set [7] deals with bladder cancer T24 cells. Nature of the data set: In vitro cytotoxicity, T24. It is filed as cell-based. Conditions: Homo sapiens, T-24, 72 h, 3 days. The protocol:
as §1

Data set [8] relates to non-small cell lung cancer (NSCLC) H838 cells. Nature of the data set: In vitro cytotoxicity, H838. The data set is classed as cell-based. Particulars: Homo sapiens, NCI-H838, 72 h, 3 days. As to the method: as §1
Data set [9] concerns H2228 cell line. Nature of the data set: In vitro cytotoxicity, H2228. It is filed as cell-based.
Data set [10] concerns NSCLC cell lines HCC827, H838, HCC4006, H1693, H2030, H2228, A549, H1437, H1944. Nature of the data set: Cytotoxicity in nine lung cancer cell lines. It is filed as cell-based. Particulars: all nine NSCLC cell lines.
In data set [11] the test system is subcutaneous HCC827 tumor. Nature of the data set: In vivo fluorescent imaging of mice bearing HCC827 tumors. On the set-up: species or system nude mice. Conditions: 15 mg/kg intravenous. As to the method:
In vivo studies on the effect of compound (3) on the tumor growth and body mass of a mouse model were conducted. Female athymic nude mice (nu/nu) from 4-6 weeks old were obtained from Charles River Laboratories (Boston, MA, USA) and kept under sterile conditions. 5×10^6 human lung adenocarcinoma HCC827 cells suspended in 150 μL of PBS were inoculated subcutaneously in the right shoulder of the nude mice. When the tumors reached 3˜5 mm in diameter, the tumor bearing mice were administered i.v. with compound (3) (dissolved in 150 μL PBS, with 2 μL DMSO) at 15 mg/kg on days 1, 3, 5, 7, 9, 11, 13, 15, 17, 19, 21. Correspondingly, untreated tumor-bearing mice serving as controls were administered i.v. with 150 μL 1×PBS pH 7.4 (with 2 μL DMSO) on the same days as the treated mice. Ten mice were used for each group. Length and width of the elliptical tumors were measured by Vernier caliper after every intravenous injection. Modified ellipsoid formula ½ (Length×Width^2) was used to calculate the tumor size. The tumor growth was calculated with the ratio of final volume (FV) minus initial volume (IV) to initial volume (IV). In vivo fluorescent imaging was taken 40 minutes and 2 hours after the injection of compound (3) 15 mg/kg. IVIS spectrum instrument was used. Excitation wavelength was set at 450 nm. Collection wavelength was set at 550 nm, using a 3s acquisition time. […]

Data set [12] has as its system human lung adenocarcinoma HCC827 xenograft. Nature of the data set: Tumor growth and body weight in the HCC827 xenograft. It is filed as in vivo, nude mice. As to the method: In vivo studies on the effect of compound (3) on the tumor growth and body mass of a mouse model were conducted. Female athymic nude mice (nu/nu) from 4-6 weeks old were obtained from Charles River Laboratories (Boston, MA, USA) and kept under sterile conditions. 5×10^6 human lung adenocarcinoma HCC827 cells suspended in 150 μL of PBS were inoculated subcutaneously in the right shoulder of the nude mice. When the tumors reached 3˜5 mm in diameter, the tumor bearing mice were administered i.v. with compound (3) (dissolved in 150 μL PBS, with 2 μL DMSO) at 15 mg/kg on days 1, 3, 5, 7, 9, 11, 13, 15, 17, 19, 21. Correspondingly, untreated tumor-bearing mice serving as controls were administered i.v. with 150 μL 1×PBS pH 7.4 (with 2 μL DMSO) on the same days as the treated mice. Ten mice were used for each group. Length and width of the elliptical tumors were measured by Vernier caliper after every intravenous injection. Modified ellipsoid formula ½ (Length×Width^2) was used to calculate the tumor size. The tumor growth was calculated with the ratio of final volume (FV) minus initial volume (IV) to initial volume (IV).

Data set [13] has as its system carcinoma cell. Nature of the data set: Flow cytometry of carcinoma cell growth. It is filed as cell-based.

Take `Cn1cc(/C=C/c2cc[n+](C)cc2)c2cc(F)ccc21` [(1)]: in data set [1], the quantum yield result is “around 12%”. Further, the photostability result in data set [2] was “bleached relatively easily”.
As to `C[n+]1ccc(/C=C/c2c[nH]c3c2ccc2ccccc23)cc1` [(2)], the quantum yield result in [1] is reported as “around 12%”. In data set [3], the IC50 – broadly, the concentration at which inhibition is half-maximal – fell in the range of 360 to 6200 nM.
`C[n+]1ccc(/C=C/c2c[nH]c3ccc(Br)cc23)cc1` [(5)]: in [4], the “absorption peak / absorption maxima” value is listed as “about 450 nm”. In [3], this compound yielded an IC50 of 360 to 6200 nM.
Consider `C[n+]1ccc(/C=C/c2c[nH]c3ccc(F)cc23)cc1` [(7)], for which the quantum yield result in data set [1] was “around 20%”.
On to `C[n+]1ccc(/C=C/c2c(Cl)[nH]c3ccccc23)cc1` [(8)], for which, in data set [2], the photostability entry is recorded as “bleached relatively easily”.
On to `Cc1ccc2[nH]c(C)c(/C=C/c3cc[n+](C)cc3)c2c1` [(9)], for which, in data set [4], the “absorption peak / absorption maxima” value was “about 450 nm”. The quantum yield result in [1] is on record as “around 20%”. Besides, in data set [2], the photostability entry is reported as “bleached relatively easily”.
For the compound `Cc1cc(Br)cc2c(/C=C/c3cc[n+](C)cc3)c[nH]c12` [Compound (3)], the quantum yield entry in [1] is “around 20%”. For the same compound, in data set [5], the “colocalization with MitoTrack” value was “colocalization”. The “accumulation in the mitochondria, low K+” value in [6] (3 μM, 30 minutes, preincubation with 3 mM K+) was “more accumulation”. In addition, the “accumulation in the mitochondria, high K+” value in data set [6] (3 μM, 30 minutes, preincubation with 137 mM K+) is recorded as “less accumulation”. Besides, the “mitochondrial staining after addition of FCCP” value in data set [6] (FCCP added to the cells) is “immediately decayed and diffused into the cytoplasm”. For the same compound, the IC50 in data set [3] is 360 to 6200 nM; in data set [7], 820 nM; in data set [8], 360 nM; in data set [9] (Homo sapiens, NCI-H2228, H2228 cell line) it was 48.9 nM. Further, the “anti-cancer cell to anti-normal cell ratio” value in data set [9] (H2228 against 3T3) is reported as “around 225”. In addition, the “ATCA (antitumor activity) in NSCLC cell lines” value in data set [10] is “impressively high ATCA”. Besides, in [11] (2 h post injection), the “tumor to background ratio” value is reported as roughly 2. The organ accumulation result in data set [11] (compared with liver, spleen, heart, lung, and brain) is “Tumor, kidney, bone, stomach, bowel, pancreas and skin accumulated more”. Also, in data set [12] (15 mg/kg i.v. on days 1 to 21 every other day, 21 days PI, p=0.0426), the “tumor volume compared to PBS treated group” value was “decreased dramatically”. Moreover, the “bodyweight between control and treated group” value in [12] (15 mg/kg i.v., p=0.477) is “no significant difference”. The “tumor pathologic section H&E staining” value in data set [12] (HCC827 tumor of treated mice) is “caused tumor inflammatory cell infiltration, fibrous tissue proliferation, and cell apoptosis”. Moreover, the “carcinoma cell growth by flow cytometry” value in data set [13] was “inhibited carcinoma cell growth in a time-dependent manner”.
As to `C[n+]1ccc(/C=C/c2c[nH]c3ccc(C#N)cc23)cc1` [Compound (4)], in data set [1], the quantum yield is 49.1%. In data set [3], this compound yielded a 50% inhibitory concentration (IC50) of 360 to 6200 nM.

For the origin of these results see patent US12172976B2, “Delocalized lipophilic cation compounds and methods of use thereof” (The Board of Trustees of the Leland Stanford Junior …, priority 2019, dated 2024).
